Results on 30 compounds are retold here after patent US12043621B2, “Small molecule inhibitors of Interleukin-4” (Trustees of Boston University, priority 2020, dated 2024).

Like-named read-outs stand apart in the source and are kept apart here.

One assay has as its target T1, IL-4 (Homo sapiens, UniProt P05112).
T1 construct: purchased Acros Biosystems IL4-H4218; host or cells: HEK-293
T1 sequence (P05112 25-153): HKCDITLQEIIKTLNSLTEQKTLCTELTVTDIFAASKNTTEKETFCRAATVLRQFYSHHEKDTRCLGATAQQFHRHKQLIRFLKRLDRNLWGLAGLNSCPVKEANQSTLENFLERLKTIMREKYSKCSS
The assay is described as follows: HEK-Blue IL-4/IL-13 cell-based reporter (SEAP) IL-4 inhibition assay. As to conditions: for Activity at 1 uM / Activity at 10 uM: percent activity in HEK-Blue IL-4/IL-13, in %; for reduction of IL-4 activity: at 50 μM, normalized to IL-4 with vehicle. As to the method:
HEK-Blue IL-4/IL-13 cells were purchased from Invivogen and maintained in DMEM complete with 10% fetal bovine serum, 10 μg/ml of blasticidin and 100 μg/ml of Zeocin, 100 μg/mL Normocin, and 100 U/mL-100 μg/mL Pen-Strep. Cells used for assays were between passages 12 and 18. […] HEK-Blue IL-4/IL-13 cells were trypsinized, spun down, and resuspended in DMEM with 10% heat-inactivated FBS, and 100 U/mL-100 μg/mL Pen-Strep at a concentration of 3.125E5/mL. 160 μL of the cell suspension was added to each well of a 96 well plate, avoiding the edges of the plate and equilibrated in an incubator for 1 hour. After 2 hours, 40 μL of the small molecule/IL-4 solution was added to each well. Each measurement performed in quadruplicate. Cells were incubated for 20 hours at 37° C./5% CO2. Quanti-Blue was prepared according to manufacture and 160 μL added to each well of a 96 well plate, avoiding edges. 40 μL of cell supernatant was added to each well and then incubated for 3 hours at 37° C. The optical density was then read at 650 nm with a Molecular Devices SpectraMax M5 Microplate Reader. Data was plotted and analyzed in GraphPad Prism 8.
HEK-Blue IL-4/IL-13 cells were purchased from Invivogen and maintained in DMEM complete with 10% fetal bovine serum, 10 μg/ml of blasticidin and 100 μg/ml of Zeocin, 100 μg/mL Normocin, and 100 U/mL-100 μg/mL Pen-Strep. Cells used for assays were between passages 12 and 18. Prior to screening small molecules, the SEAP production induced by IL-4 alone was tested in the cells (FIG. 13) and determined to be 0.3 ng/mL. The EC25 for the IL-4 induced SEAP production (0.1 ng/mL final well concentration) was chosen for running small molecule inhibition assays.
(§1) For screening small molecules, 25 µL of each molecule (FIG. 9) in DMEM with 4% DMSO was added to 25 μL of 1 ng/ml IL-4 in DMEM and incubated for 2 hours at 37° C. HEK-Blue IL-4/IL-13 cells were trypsinized, spun down, and resuspended in DMEM with 10% heat-inactivated FBS, and 100 U/mL-100 μg/mL Pen-Strep at a concentration of 3.125E5/mL. 160 μL of the cell suspension was added to each well of a 96 well plate, avoiding the edges of the plate and equilibrated in an incubator for 1 hour. After 2 hours, 40 μL of the small molecule/IL-4 solution was added to each well. Each measurement was performed in […]. Cells were incubated for 20 hours at 37° C./5% CO2. Quanti-Blue was prepared according to manufacture and 160 μL added to each well of a 96 well plate, avoiding edges. 40 μL of cell supernatant was added to each well and then incubated for 3 hours at 37° C. The optical density was then read at 650 nm with a Molecular Devices SpectraMax M5 Microplate Reader. Data was plotted and analyzed in GraphPad Prism 8.
HEK-Blue IL-4/IL-13 cells used to screen analogs of compound 52 from ACS Chemical Biology paper (also referred to herein as D9). Assay was run as described in Examples 2 and 3. All compounds were screened at 10 μM, 1 μM, and 250 nM in quadruplicate. The results are depicted in FIGS. 17-21.

For another assay, the system named is >25 other proteins. The assay is described as follows: SMM binding signatures versus >25 unrelated proteins. To be noted: compared to SMM binding signatures for >25 other proteins. An excerpt: [formula] Where SNRi is the SNR value for a given feature, Mdn(SNR) is the median of the SNR values for all features in the subarray, and the MAD(SNR) is the […] absolute deviation of the SNR values for all features in the subarray. Assay positives with an average robust Z score greater than 1.645 (alpha=0.05) on duplicate slides were compared to both a counter screen for the detection antibody and a database representing >25 unique targets screened by SMM against the same chemical library to filter nonspecific binders. DSF

The test system of assay [1] is HEK-Blue IL-4/IL-13 cells. The assay is described as follows: HEK-Blue IL-4/IL-13 control: compounds alone without IL-4 (SEAP). As to conditions: cells with 100 μM compound, no IL-4. Type of assay: cell-based. The procedure: as §1, with “For screening small molecules, 25 µL of each molecule (FIG. 9) in DMEM with 4% DMSO was added to 25 μL of 1 ng/ml IL-4 in DMEM and incubated for 2 hours at 37° C.” left out

Where [2] appears, read: Example 2, quadruplicate, read-out: EC50 of IL-4 inhibition in HEK-Blue IL-4/IL-13 cells.
Where [3] appears, read: Example 3, triplicate, read-out: EC50 of IL-4 inhibition in HEK-Blue IL-4/IL-13 cells.

`COc1ccc(-c2cc(-c3ccc(O)c(OC)c3)c(C#N)c(=O)[nH]2)cc1` [Compound 45]: on IL-4, the “Activity at 1 uM” value was determined as 80.34 and the “Activity at 10 uM” value is −2.843.
On the same counts, the results for `COc1ccc(-c2cc(-c3ccc(O)cc3)c(C#N)c(SC)n2)c(OC)c1` [Compound 66] are 87.86 and 21.21.
Regarding `Cc1ccc(-c2cc(-c3ccc(F)cc3)nc(N)c2C#N)o1` [Compound 9], at IL-4, the “Activity at 1 uM” value is given as 77.98 and the “Activity at 10 uM” value was 66.06.
In the same order, the values of `N#Cc1c(-c2cccc(O)c2)cc(-c2cc(F)c(F)c(F)c2)[nH]c1=O` [Compound 59] are 88.75 and 32.37.
`Cc1ccc(-c2cc(-c3ccc(F)cc3)nc(N)c2C#N)s1` [Compound 11]: on IL-4, the “Activity at 1 uM” value stood at 69.98 and the “Activity at 10 uM” value is given as 62.48.
In the same order, the values of `N#Cc1c(-c2ccccc2O)cc(-c2ccc(F)cc2)nc1N` [Compound 15] are 51.3773 and 1.218.
In the same order, the values of `N#Cc1c(-c2ccc(O)c(O)c2)cc(-c2ccc(N3CCCCC3)cc2)[nH]c1=O` [Compound 56] are 81.52 and 11.84.
As for `COc1ccc(-c2cc(-c3ccccc3O)c(C#N)c(=O)[nH]2)cc1` [Compound 42], at IL-4, the “Activity at 1 uM” value came to 33.675 and the “Activity at 10 uM” value is given as −0.3167.
Turning to `COc1nc(-c2ccccc2)cc(-c2ccccc2)c1C#N` [Compound 61], on IL-4, the “Activity at 1 uM” value worked out at 96.92 and the “Activity at 10 uM” value worked out at 39.64.
In the same order, the values of `N#Cc1c(-c2ccc(O)c(O)c2)cc(-c2ccc(F)cc2)nc1N` [Compound 2] are 64.46 and 4.2.
On the same counts, the results for `Cc1cc(-c2cc(-c3cccc(O)c3)c(C#N)c(=O)[nH]2)c(C)s1` [Compound 58] are 85.76 and 39.79.
Consider `N#Cc1c(-c2ccc(O)c(O)c2)cc(-c2ccc(F)cc2)nc1N` [Compound 1, 2-amino-4-(3,4-dihydroxyphenyl)-6-(4-fluorophenyl)-nicotinonitrile], for which, at IL-4, the “Activity at 1 uM” value is 71.73, the “Activity at 10 uM” value came out at 2.405 and the “reduction of IL-4 activity” value is recorded as 88.6%. On IL-4 (setting [2]), the EC50 stood at 45.6 µM. Besides, the EC50 at IL-4 (setting [3]) was 40 µM. For the same compound, the EC50 at IL-4 (Table 3, read-out: EC50) turned out to be 1.56 µM. Also, in the assay with >25 other proteins, the SMM binding selectivity result was “only bound to IL-4”. This compound also gave an Abs650 in assay [1] of 0.0955 ± 0.0072.
For `COc1ccc(-c2cc(-c3ccc(C)o3)c(C#N)c(=O)[nH]2)cc1` [Compound 37], on IL-4, the “Activity at 1 uM” value was 89.04 and the “Activity at 10 uM” value worked out at 99.52.
In the case of `COc1ccc(-c2cc(-c3ccc(OC)c(O)c3)c(C#N)c(N)n2)cc1` [Compound 30], on IL-4, the “Activity at 1 uM” value is on record as 64.45 and the “Activity at 10 uM” value is given as 28.76. Also, the EC50 at IL-4 (Table 3, read-out: EC50) came to 3.88 µM.
Regarding `COc1ccc(-c2cc(-c3cccc(O)c3)c(C#N)c(=O)[nH]2)cc1` [Compound 43], at IL-4, the “Activity at 1 uM” value is 112.2 and the “Activity at 10 uM” value is 35.73.
In the same order, the values of `COc1ccc(-c2cc(-c3ccc(O)cc3)c(C#N)c(=O)[nH]2)cc1` [Compound 44] are 33.62 and 39.28.
Take `COc1ccc(-c2cc(-c3ccc(-c4ccccc4)cc3)[nH]c(=O)c2C#N)cc1O` [Compound 53]: on IL-4, the “Activity at 1 uM” value turned out to be 17.656 and the “Activity at 10 uM” value is recorded as 30.26.
In the case of `COc1ccc(-c2cc(C3CCCOC3)c(C#N)c(=O)[nH]2)cc1` (stereo not shown) [Compound 36], on IL-4, the “Activity at 1 uM” value was determined as 71.59 and the “Activity at 10 uM” value is recorded as 68.36.
Take `COc1ccc(-c2cc(-c3cccnc3)nc(N)c2C#N)cc1O` [Compound 25]: the EC50 on IL-4 (setting [2]) was 21.7 µM; at IL-4 (setting [3]), 7.6 µM. Also, on IL-4, the “reduction of IL-4 activity” value is on record as 84.3%. Besides, in the assay with >25 other proteins, the SMM binding selectivity result was “only bound to IL-4”. The Abs650 in assay [1] is 0.0648 ± 0.0012.
As for `COc1ccc(-c2cc(-c3ccc(Cl)c(Cl)c3)c(C#N)c(=O)[nH]2)cc1` [Compound 32], at IL-4, the “Activity at 1 uM” value came out at 51.3 and the “Activity at 10 uM” value was determined as 55.85.
In the same order, the values of `N#Cc1c(-c2ccc(O)cc2)cc(-c2ccc(F)cc2)nc1N` [Compound 17] are 99.0184 and 52.77.
In the same order, the values of `N#Cc1c(-c2cc(O)c(O)c(O)c2)cc(-c2ccc(F)cc2)nc1N` [Compound 5] are 84.76 and 93.86.
On the same counts, the results for `COc1ccc(-c2cc(-c3ccc(OC)c(O)c3)c(C#N)c(=O)[nH]2)cc1` [Compound 46] are 17.94 and 13.16.
For the compound `COc1ccc(-c2cc(-c3ccccc3)c(C#N)c(S)n2)cc1` [Compound 64], on IL-4, the “Activity at 1 uM” value worked out at 17.08 and the “Activity at 10 uM” value is 16.53.
On the same counts, the results for `COc1ccc(-c2cc(-c3ccccc3)nc(Br)c2C#N)cc1` [Compound 62] are 96.31 and 38.63.
For `COc1ccc(-c2cc(-c3ccc4ccccc4c3)c(C#N)c(=O)[nH]2)cc1` [Compound 41], at IL-4, the “Activity at 1 uM” value is given as 62.288 and the “Activity at 10 uM” value was 48.23.
In the same order, the values of `COc1ccc(-c2cc(-c3ccccc3)c(C#N)c(SC)n2)cc1` [Compound 65] are 95.33 and 20.54.
Take `N#Cc1c(-c2ccccc2)cc(-c2ccccc2)nc1N1CCCCC1` [Compound 63]: at IL-4, the “Activity at 1 uM” value is 95.46 and the “Activity at 10 uM” value is 40.44.
For the compound `Cn1ccc(-c2cc(-c3cccc(O)c3)c(C#N)c(=O)[nH]2)c1` [Compound 57], on IL-4, the “Activity at 1 uM” value is recorded as 94.4121 and the “Activity at 10 uM” value came out at 75.91.
On to `COc1ccc(-c2cc(-c3ccccc3)c(C#N)c(=O)[nH]2)cc1` [Compound 34], for which, on IL-4, the “Activity at 1 uM” value was 73.09 and the “Activity at 10 uM” value came to 72.43.
